Among the data in ChEMBL document CHEMBL5291721, “A preclinical secondary pharmacology resource illuminates target-adverse drug reaction associations of marketed drugs” (Nat Commun, 2023) are AC50 values, retold here.

Each structure is given as a SMILES string. Bounds are passed on as bounds.

Test [1] concerns the target Adenosine receptor A2a (Homo sapiens, UniProt P29274).
Test [2] deals with T1, Alpha-2A adrenergic receptor (Homo sapiens, UniProt P08913).
T1 sequence (P08913 whole entry): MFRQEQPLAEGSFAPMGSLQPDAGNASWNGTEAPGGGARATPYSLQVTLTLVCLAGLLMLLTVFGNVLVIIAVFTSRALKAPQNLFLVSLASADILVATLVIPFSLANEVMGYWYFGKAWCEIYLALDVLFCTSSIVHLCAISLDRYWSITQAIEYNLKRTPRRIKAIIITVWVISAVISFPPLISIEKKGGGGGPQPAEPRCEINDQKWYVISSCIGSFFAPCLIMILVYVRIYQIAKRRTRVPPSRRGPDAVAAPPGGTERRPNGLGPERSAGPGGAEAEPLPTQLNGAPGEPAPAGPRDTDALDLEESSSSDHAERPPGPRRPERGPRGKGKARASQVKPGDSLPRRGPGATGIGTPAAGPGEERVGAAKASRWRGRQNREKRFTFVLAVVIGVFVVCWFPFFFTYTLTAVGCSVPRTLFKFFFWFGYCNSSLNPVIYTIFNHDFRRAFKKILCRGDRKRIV
Type of test: functional, cell-based.

Test [3] concerns the target T2, Alpha-2C adrenergic receptor (Homo sapiens, UniProt P18825).
T2 sequence (P18825 whole entry): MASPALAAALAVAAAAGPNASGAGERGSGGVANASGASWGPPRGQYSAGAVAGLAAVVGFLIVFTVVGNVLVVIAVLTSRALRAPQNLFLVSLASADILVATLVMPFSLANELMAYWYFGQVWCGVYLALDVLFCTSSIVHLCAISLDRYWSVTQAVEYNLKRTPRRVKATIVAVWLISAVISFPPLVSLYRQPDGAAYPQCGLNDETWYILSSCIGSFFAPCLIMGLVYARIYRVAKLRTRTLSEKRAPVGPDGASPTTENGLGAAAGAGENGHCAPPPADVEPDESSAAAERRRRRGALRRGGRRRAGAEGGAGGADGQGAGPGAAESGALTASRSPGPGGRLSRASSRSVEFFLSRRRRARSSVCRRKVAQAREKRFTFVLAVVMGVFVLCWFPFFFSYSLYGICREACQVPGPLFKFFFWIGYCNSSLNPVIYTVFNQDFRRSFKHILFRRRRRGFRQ
Type of test: functional.

Test [4] deals with T3, Type-1 angiotensin II receptor (Homo sapiens, UniProt P30556).
T3 sequence (P30556 whole entry): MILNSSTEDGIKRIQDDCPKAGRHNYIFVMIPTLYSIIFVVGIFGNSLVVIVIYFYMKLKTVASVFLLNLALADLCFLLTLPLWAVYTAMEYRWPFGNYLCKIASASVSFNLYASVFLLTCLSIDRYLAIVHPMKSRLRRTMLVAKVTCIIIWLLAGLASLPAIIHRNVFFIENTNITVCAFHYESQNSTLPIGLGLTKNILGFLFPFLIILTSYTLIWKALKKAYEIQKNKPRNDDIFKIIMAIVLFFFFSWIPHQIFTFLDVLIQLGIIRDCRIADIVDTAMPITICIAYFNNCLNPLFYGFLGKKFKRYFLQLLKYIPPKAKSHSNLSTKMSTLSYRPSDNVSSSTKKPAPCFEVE

Test [5] addresses Neuronal acetylcholine receptor subunit alpha-4 (Homo sapiens, UniProt P43681).
The target in test [6] is Gamma-aminobutyric acid receptor subunit alpha-1 (Rattus norvegicus, UniProt P62813). Type of test: functional.
Test [7] addresses T4, 5-hydroxytryptamine receptor 2C (Homo sapiens, UniProt P28335).
T4 sequence (P28335 whole entry): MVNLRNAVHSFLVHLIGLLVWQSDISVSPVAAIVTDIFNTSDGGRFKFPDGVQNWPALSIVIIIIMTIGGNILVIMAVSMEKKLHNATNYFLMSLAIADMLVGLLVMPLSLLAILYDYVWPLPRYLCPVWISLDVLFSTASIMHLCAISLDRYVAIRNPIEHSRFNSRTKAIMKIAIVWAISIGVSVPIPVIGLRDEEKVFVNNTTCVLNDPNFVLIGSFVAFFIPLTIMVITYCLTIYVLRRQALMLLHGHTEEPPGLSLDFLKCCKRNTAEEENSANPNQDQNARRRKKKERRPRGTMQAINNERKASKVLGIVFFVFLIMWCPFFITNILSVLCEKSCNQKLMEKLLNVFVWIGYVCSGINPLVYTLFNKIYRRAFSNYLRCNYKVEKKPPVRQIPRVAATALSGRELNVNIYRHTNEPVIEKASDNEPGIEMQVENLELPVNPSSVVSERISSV

Test [8] addresses Voltage-gated inwardly rectifying potassium channel KCNH2 (Homo sapiens, UniProt Q12809). In kind it is functional. The note with it: read-out: AC50.
Test [9] has as its target Melanocortin receptor 3 (Homo sapiens, UniProt P41968).
The target in test [10] is T5, Amine oxidase [flavin-containing] A (Homo sapiens, UniProt P21397).
T5 sequence (P21397 whole entry): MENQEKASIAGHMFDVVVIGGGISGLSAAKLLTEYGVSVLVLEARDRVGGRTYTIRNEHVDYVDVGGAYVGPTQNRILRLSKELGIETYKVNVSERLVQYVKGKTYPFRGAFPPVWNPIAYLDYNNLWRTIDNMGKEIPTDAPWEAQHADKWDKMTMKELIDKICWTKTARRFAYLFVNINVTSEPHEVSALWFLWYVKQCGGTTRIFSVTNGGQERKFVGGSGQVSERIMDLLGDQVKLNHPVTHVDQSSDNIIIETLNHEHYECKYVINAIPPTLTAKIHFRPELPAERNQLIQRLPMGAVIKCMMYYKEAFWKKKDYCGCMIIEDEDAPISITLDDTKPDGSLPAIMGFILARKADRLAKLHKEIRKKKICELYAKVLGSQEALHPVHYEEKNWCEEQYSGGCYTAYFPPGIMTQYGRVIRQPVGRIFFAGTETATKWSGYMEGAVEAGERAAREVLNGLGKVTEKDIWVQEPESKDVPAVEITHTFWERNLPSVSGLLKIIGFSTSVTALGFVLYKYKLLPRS
In kind it is functional.

Test [11] addresses Sodium-dependent noradrenaline transporter (Homo sapiens, UniProt P23975).
Further: assay procedure not described here.

Gamma-aminobutyric acid receptor subunit alpha-1, sequence (P62813 whole entry): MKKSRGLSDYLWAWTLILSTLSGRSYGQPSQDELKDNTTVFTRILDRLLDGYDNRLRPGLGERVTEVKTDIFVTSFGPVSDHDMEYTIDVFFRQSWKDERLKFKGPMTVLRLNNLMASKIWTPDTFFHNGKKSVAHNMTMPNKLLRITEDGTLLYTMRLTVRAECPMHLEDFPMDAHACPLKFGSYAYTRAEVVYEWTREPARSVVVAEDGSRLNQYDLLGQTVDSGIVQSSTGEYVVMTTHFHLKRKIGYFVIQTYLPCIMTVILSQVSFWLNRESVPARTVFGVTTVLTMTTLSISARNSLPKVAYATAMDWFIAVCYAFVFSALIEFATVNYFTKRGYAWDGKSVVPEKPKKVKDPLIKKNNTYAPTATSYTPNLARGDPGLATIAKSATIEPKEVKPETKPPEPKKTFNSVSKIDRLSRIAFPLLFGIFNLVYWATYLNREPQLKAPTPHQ
Voltage-gated inwardly rectifying potassium channel KCNH2, sequence (Q12809 whole entry): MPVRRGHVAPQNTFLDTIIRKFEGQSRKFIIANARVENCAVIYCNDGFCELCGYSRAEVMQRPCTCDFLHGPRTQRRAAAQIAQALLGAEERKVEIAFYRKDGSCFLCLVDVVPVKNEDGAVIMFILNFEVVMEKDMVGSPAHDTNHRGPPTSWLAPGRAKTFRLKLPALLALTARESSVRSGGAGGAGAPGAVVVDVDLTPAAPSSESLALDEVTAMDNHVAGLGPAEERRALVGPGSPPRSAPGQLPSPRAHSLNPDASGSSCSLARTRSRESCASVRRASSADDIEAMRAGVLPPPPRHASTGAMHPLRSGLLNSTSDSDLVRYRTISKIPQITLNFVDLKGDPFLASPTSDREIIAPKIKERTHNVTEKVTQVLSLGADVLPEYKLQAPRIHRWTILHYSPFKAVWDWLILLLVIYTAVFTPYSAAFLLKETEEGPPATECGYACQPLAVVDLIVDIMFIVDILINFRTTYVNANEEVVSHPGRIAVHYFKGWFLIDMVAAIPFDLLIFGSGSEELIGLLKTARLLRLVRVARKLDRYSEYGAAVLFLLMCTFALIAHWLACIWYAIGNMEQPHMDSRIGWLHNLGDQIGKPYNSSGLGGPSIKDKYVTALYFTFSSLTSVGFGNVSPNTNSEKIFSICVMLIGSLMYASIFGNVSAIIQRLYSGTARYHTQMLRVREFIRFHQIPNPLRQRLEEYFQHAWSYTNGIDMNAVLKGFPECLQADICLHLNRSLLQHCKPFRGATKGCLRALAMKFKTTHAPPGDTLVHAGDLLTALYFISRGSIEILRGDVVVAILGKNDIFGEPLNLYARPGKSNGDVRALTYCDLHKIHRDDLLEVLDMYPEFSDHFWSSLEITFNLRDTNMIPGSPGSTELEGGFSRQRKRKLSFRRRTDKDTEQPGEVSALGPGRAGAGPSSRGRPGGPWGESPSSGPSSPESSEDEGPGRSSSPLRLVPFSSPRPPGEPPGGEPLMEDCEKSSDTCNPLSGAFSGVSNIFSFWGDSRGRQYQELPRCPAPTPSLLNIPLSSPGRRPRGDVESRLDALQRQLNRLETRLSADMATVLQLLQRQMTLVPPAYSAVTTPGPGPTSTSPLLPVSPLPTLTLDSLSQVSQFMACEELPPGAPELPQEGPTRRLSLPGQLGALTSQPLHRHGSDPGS
Melanocortin receptor 3, sequence (P41968 whole entry): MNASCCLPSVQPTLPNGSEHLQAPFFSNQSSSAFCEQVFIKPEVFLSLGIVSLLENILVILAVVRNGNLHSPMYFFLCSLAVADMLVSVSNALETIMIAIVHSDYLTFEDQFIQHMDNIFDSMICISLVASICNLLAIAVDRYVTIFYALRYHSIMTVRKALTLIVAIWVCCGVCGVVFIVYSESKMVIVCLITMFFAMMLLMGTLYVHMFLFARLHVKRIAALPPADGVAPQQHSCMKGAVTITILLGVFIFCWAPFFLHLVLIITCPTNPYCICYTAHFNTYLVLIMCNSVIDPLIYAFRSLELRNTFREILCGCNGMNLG
Adenosine receptor A2a, sequence (P29274 whole entry): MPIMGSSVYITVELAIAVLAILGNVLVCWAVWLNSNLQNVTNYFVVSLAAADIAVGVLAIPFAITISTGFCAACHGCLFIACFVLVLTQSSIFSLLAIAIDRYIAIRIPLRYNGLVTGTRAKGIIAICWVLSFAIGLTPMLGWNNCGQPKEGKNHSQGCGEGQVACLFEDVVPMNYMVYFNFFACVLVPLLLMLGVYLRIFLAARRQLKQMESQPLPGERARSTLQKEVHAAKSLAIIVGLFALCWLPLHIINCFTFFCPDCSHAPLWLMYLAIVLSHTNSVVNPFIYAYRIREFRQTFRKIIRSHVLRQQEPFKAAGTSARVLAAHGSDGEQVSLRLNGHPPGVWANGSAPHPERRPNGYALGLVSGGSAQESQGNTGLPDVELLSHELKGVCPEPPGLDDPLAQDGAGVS
Sodium-dependent noradrenaline transporter, sequence (P23975 whole entry): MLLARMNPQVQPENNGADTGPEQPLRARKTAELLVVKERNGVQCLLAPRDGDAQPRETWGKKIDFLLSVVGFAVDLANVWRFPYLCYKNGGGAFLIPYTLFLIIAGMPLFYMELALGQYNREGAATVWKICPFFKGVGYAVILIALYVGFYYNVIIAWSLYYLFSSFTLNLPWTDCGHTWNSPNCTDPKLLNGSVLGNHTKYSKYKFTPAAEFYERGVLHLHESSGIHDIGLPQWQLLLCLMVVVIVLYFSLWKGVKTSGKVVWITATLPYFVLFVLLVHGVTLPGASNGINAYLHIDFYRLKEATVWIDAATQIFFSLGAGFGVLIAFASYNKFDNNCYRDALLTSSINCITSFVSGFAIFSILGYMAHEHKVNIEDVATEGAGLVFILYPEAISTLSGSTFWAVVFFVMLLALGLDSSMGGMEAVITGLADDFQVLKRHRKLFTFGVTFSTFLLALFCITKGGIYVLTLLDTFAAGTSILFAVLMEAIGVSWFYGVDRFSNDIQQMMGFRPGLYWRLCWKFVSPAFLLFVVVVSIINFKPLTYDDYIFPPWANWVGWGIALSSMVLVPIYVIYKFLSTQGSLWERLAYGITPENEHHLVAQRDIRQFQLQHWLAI
Neuronal acetylcholine receptor subunit alpha-4, sequence (P43681 whole entry): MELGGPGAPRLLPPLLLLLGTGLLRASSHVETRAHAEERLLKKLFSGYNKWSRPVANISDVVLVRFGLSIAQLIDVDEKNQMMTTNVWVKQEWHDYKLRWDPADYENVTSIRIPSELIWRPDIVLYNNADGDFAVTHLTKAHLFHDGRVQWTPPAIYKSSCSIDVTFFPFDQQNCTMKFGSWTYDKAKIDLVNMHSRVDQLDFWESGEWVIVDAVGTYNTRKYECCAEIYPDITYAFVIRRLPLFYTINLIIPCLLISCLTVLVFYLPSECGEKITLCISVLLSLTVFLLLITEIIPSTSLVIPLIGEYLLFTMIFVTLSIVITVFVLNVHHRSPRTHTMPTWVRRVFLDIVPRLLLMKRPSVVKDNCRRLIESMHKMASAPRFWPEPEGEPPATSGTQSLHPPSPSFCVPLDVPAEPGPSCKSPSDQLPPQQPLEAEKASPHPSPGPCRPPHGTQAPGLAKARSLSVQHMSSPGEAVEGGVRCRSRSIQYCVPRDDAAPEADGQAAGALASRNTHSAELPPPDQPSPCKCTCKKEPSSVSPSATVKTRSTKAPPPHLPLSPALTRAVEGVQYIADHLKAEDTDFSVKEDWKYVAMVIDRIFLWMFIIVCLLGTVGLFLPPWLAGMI

Turning to `CC(N)Cc1ccccc1` (centres undefined) [AMPHETAMINE], the AC50 (commonly the concentration at which the activity in the assay is half-maximal) in [1] is 11 µM; in [2], over 30 µM; in test [3] it was over 30 µM; in [4], over 30 µM; in test [5], over 30 µM; in test [6] it was over 30 µM. Besides, the AC50 in [7], in test [8], in test [9] and in [10] was over 30 µM in each case.
Consider `O=C1c2c(O)c(=O)ccn2N([C@@H]2c3ccccc3SCc3c2ccc(F)c3F)[C@@H]2COCCN12` [BALOXAVIR], for which the AC50 in test [8] was over 30 µM.
On the same count and under the same terms, then `CCO/N=C(\C(=O)N[C@@H]1C(=O)N2C(C(=O)[O-])=C(Sc3nc(-c4cc[n+](C)cc4)cs3)CS[C@H]12)c1nsc(N)n1` [CEFTAROLINE], with 26 µM; and `Cc1cc(O)cc(C)c1Cl` [CHLOROXYLENOL], with over 30 µM.
As for `CN(C)CCCN1c2ccccc2CCc2ccc(Cl)cc21` [CLOMIPRAMINE], the AC50 in test [2] was over 10 µM; in [5], over 10 µM; in [6], over 10 µM; in test [7] it was 0.53 µM; in [10], over 10 µM.
On to `CC(=O)OCC(=O)[C@@]1(O)CC[C@H]2[C@@H]3CCC4=CC(=O)CC[C@]4(C)[C@H]3C(=O)C[C@@]21C` [CORTISONE ACETATE], for which the AC50 in test [3], in test [6], in test [7] and in [10] was over 30 µM throughout.
`C[N+](C)(C)CCCCCCCCCC[N+](C)(C)C` [DECAMETHONIUM]: the AC50 in test [8] is over 30 µM.
The same measure, in the same setting: to `O=C1c2ccccc2C(=O)C1C(=O)C(c1ccccc1)c1ccccc1` [DIPHENADIONE] belongs over 30 µM.
Regarding `C#C[C@]1(O)CC[C@H]2[C@@H]3CCc4cc(O)ccc4[C@H]3CC[C@@]21C` [ETHINYL ESTRADIOL], the AC50 is over 30 µM in [1]; over 10 µM in [2]; over 10 µM in test [3]; over 30 µM in [4]; over 10 µM in test [6]; over 30 µM in test [7]. Further, the half-maximal activity concentration (AC50) is over 30 µM in [8], over 30 µM in test [9] and over 10 µM in test [10].
In the case of `CCOC(=O)c1ccc(O)cc1` [ETHYLPARABEN], in test [8], the AC50 is over 30 µM.
Same read-out and setting: to `O=C1[C@H](CC[C@H](O)c2ccc(F)cc2)[C@@H](c2ccc(O)cc2)N1c1ccc(F)cc1` [EZETIMIBE] belongs 16 µM.
In the case of `NC(N)=Nc1nc(CSCCC(N)=NS(N)(=O)=O)cs1` [FAMOTIDINE], the AC50 in test [1] is over 30 µM; in [2], over 10 µM; in test [3] it was over 10 µM; in [4], over 30 µM; in test [6], over 10 µM; in [7], over 10 µM. Also, the results for the AC50 in test [9], in test [11] and in [10] were over 30 µM, over 10 µM and 8.1 µM, respectively.
`O=C(COc1ccc(Cl)cc1)N1CCN(Cc2ccc3c(c2)OCO3)CC1` [FIPEXIDE]: the concentration at half-maximal activity (AC50) in test [8] came to 12 µM.
The same measure, in the same setting: then `Cc1c(-c2ccccc2)oc2c(C(=O)OCCN3CCCCC3)cccc2c1=O` [FLAVOXATE], with 3.8 µM.
Still for that read-out and setting: to `CCC(=O)c1c(O)cc(O)cc1O` [FLOPROPIONE] belongs over 30 µM.
Take `CC1(C)O[C@@H]2C[C@H]3[C@@H]4C[C@H](F)C5=CC(=O)CC[C@]5(C)[C@H]4[C@@H](O)C[C@]3(C)[C@]2(C(=O)CO)O1` [FLURANDRENOLIDE]: the AC50 in [8] was over 30 µM.
On the same count and under the same terms, then `C#C[C@]1(O)CC[C@H]2[C@@H]3CCC4=CC(=O)CC[C@@H]4[C@H]3CC[C@@]21CC` [LEVONORGESTREL], with over 30 µM.
Same read-out and setting: then `CN1CCCC(CN2c3ccccc3Sc3ccccc32)C1` (centres undefined) [MEPAZINE], with 3.77 µM; and `Sc1ncnc2nc[nH]c12` [MERCAPTOPURINE ANHYDROUS], with over 30 µM; and `C[N+]1(C)[C@@H]2C[C@@H](OC(=O)[C@H](CO)c3ccccc3)C[C@H]1[C@@H]1O[C@@H]12` [METHSCOPOLAMINE], with over 30 µM.
Still for that read-out and setting: then `CC(=O)Oc1c(C)cc(OCC(O)CNC(C)C)c(C)c1C` (centres undefined) [METIPRANOLOL], with over 30 µM; and `O=C1CC[C@@]2(O)[C@H]3Cc4ccc(O)c5c4[C@@]2(CCN3CC2CC2)[C@H]1O5` [NALTREXONE], with over 30 µM.
With `CCc1nn(CCCN2CCN(c3cccc(Cl)c3)CC2)c(=O)n1CCOc1ccccc1` [NEFAZODONE], the AC50 in test [1] was over 30 µM; in test [3], 0.63 µM; in [4], over 30 µM; in [6], over 10 µM; in test [8] it was 0.89 µM; in test [9] it was over 30 µM. For the same compound, in test [10], the half-maximal activity concentration (AC50) is over 10 µM.
On to `CC(N/C(=N\C#N)Nc1ccncc1)C(C)(C)C` (centres undefined) [PINACIDIL ANHYDROUS], for which, in test [8], the AC50 was over 30 µM.
For `CC(O)CO` (centres undefined) [PROPYLENE GLYCOL], the half-maximal activity concentration (AC50) in test [8] was over 30 µM.
With `O=C(NC[C@H]1CN(c2ccc(N3CCOCC3=O)cc2)C(=O)O1)c1ccc(Cl)s1` [RIVAROXABAN], the AC50 in test [2], in [3], in test [6], in [7], in [9] and in [11] was over 30 µM throughout. In [10], this compound returned an AC50 of over 30 µM.
Regarding `CC(C)OC(=O)[C@H](C)N[P@](=O)(OC[C@H]1O[C@@H](n2ccc(=O)[nH]c2=O)[C@](C)(F)[C@@H]1O)Oc1ccccc1` [SOFOSBUVIR], the AC50 in [8] was over 30 µM.
Consider `Cc1ccc(O)c2ncccc12` [TILIQUINOL], for which the AC50 in [8] is over 30 µM.
On the same count and under the same terms, to `CC(=O)OC[C@H]1O[C@@H](n2ccc(=O)[nH]c2=O)[C@H](OC(C)=O)[C@@H]1OC(C)=O` [URIDINE TRIACETATE] belongs over 30 µM; to `CCOC(=O)N[C@@H]1CC[C@@H]2[C@@H](C1)C[C@H]1C(=O)O[C@H](C)[C@H]1[C@H]2/C=C/c1ccc(-c2cccc(F)c2)cn1` [VORAPAXAR], 3.9 µM.
